ChEMBL document CHEMBL6120947, “Synthesis and Antiosteoporotic Characterization of Diselenyl Maleimides: Discovery of a Potent Agent for the Treatment of Osteoporosis by Targeting RANKL” (J Med Chem, 2024)
Active and inactive are the calls of the source. The rule behind the calls is not given here.

What was measured:
BMDM [1] = assay: Inhibition of osteoclastogenesis in M-CSF/RANKL-induced osteoclast differentiation in C57BL/6J mouse BMDM cells at 1 uM measured for 1 to 3 days by TRAP staining based analysis; format: functional, cell-based; settings: time 1-3 day
RAW264.7 = assay: Inhibition of osteoclastogenesis in RANKL-induced osteoclast differentiation in mouse RAW264.7 cells incubated for 4 days by TRAP staining based analysis; format: functional, cell-based; settings: time 4.0 day
BMDM [2] = assay: Inhibition of osteoclastogenesis in M-CSF/RANKL-induced osteoclast differentiation in C57BL/6J mouse BMDM cells assessed as suppression of multinucleated osteoclasts formation incubated for 6 days by TRAP staining based analysis; format: functional, cell-based
BMDM [3] = assay: Inhibition of osteoclastogenesis in M-CSF/RANKL-induced osteoclast differentiation in C57BL/6J mouse BMDM cells assessed as suppression of osteoclast size measured after 7 days by F-actin ring-TRITC phalloidin staining based analysis; format: functional, cell-based; settings: dose <= 2.0 µM, time 7.0 day
BMDM [4] = assay: Inhibition of osteoclastogenesis in M-CSF/RANKL-induced osteoclast differentiation in C57BL/6J mouse BMDM cells assessed as reduction in c-Fos mRNA level measured after 5 days by qRT-PCR analysis; format: functional, cell-based; settings: dose <= 2.0 µM, time 5.0 day
BMDM [5] = assay: Inhibition of osteoclastogenesis in M-CSF/RANKL-induced osteoclast differentiation in C57BL/6J mouse BMDM cells assessed as reduction in NFATc1 mRNA level measured after 5 days by qRT-PCR analysis; format: functional, cell-based; settings: dose <= 2.0 µM, time 5.0 day
BMDM [6] = assay: Inhibition of osteoclastogenesis in M-CSF/RANKL-induced osteoclast differentiation in C57BL/6J mouse BMDM cells assessed as reduction in MMP-9 mRNA level measured after 5 days by qRT-PCR analysis; format: functional, cell-based; settings: dose <= 2.0 µM, time 5.0 day
BMDM [7] = assay: Inhibition of osteoclastogenesis in M-CSF/RANKL-induced osteoclast differentiation in C57BL/6J mouse BMDM cells assessed as reduction in NFATc1 level measured after 5 days by Western blot analysis; format: functional, cell-based; settings: dose <= 2.0 µM, time 5.0 day
BMDM [8] = assay: Inhibition of osteoclastogenesis in M-CSF/RANKL-induced osteoclast differentiation in C57BL/6J mouse BMDM cells assessed as reduction in JNK phosphorylation at 1 uM measured upto 60 mins by Western blot analysis; format: functional, cell-based
BMDM [9] = assay: Effect in p38 level in M-CSF/RANKL-induced osteoclast differentiation in C57BL/6J mouse BMDM cells at 1 uM measured upto 60 mins by Western blot analysis; format: functional, cell-based
BMDM [10] = assay: Inhibition of osteoclastogenesis in M-CSF/RANKL-induced osteoclast differentiation in C57BL/6J mouse BMDM cells assessed as reduction in p65 phosphorylation at 1 uM measured upto 60 mins by Western blot analysis; format: functional, cell-based
BMDM [11] = assay: Effect in p65 level in M-CSF/RANKL-induced osteoclast differentiation in C57BL/6J mouse BMDM cells at 1 uM measured upto 60 mins by Western blot analysis; format: functional, cell-based
BMDM [12] = assay: Inhibition of osteoclastogenesis in M-CSF/RANKL-induced osteoclast differentiation in C57BL/6J mouse BMDM cells assessed as reduction in I-kappaB-alpha degradation at 1 uM measured upto 60 mins by Western blot analysis; format: functional, cell-based
MC3T3-E1 [13] = assay: Cytotoxicity against mouse MC3T3-E1 cells at 0.5 to 2 uM incubated for 7 days by MTT assay; format: toxicity, cell-based; settings: mc3t3-e1, 168 h, dose 0.5-2 µM, time 7 day
MC3T3-E1 [14] = assay: Effect on osteoblast differentiation in mouse MC3T3-E1 cells assessed as change in ALP mRNA level at 0.5 to 2 uM incubated for 7 days by qRT-PCR analysis; format: functional, cell-based; settings: dose 0.5-2 µM, time 7.0 day
MC3T3-E1 [15] = assay: Effect on osteoblast differentiation in mouse MC3T3-E1 cells assessed as change in collagen I mRNA level at 0.5 to 2 uM incubated for 7 days by qRT-PCR analysis; format: functional, cell-based; settings: dose 0.5-2 µM, time 7.0 day
MC3T3-E1 [16] = assay: Effect on osteoblast differentiation in mouse MC3T3-E1 cells assessed as change in BMP2 level at 0.5 to 2 uM incubated for 7 days by Western blot analysis; format: functional, cell-based; settings: dose 0.5-2 µM, time 7.0 day
[17] = Toxicity in OVX-induced osteoporosis C57BL/6 mouse model assessed as animal fatality at 10 mg/kg, po administered every other day for 8 weeks; format: organism-based; settings: in vivo, 1344 h
[18] = Toxicity in OVX-induced osteoporosis C57BL/6 mouse model assessed as pathological change in liver at 10 mg/kg, po administered every other day for 8 weeks by H and E staining based analysis; format: organism-based; settings: in vivo, 1344 h
[19] = Toxicity in OVX-induced osteoporosis C57BL/6 mouse model assessed as pathological change in spleen at 10 mg/kg, po administered every other day for 8 weeks by H and E staining based analysis; format: organism-based; settings: in vivo, 1344 h
[20] = Toxicity in OVX-induced osteoporosis C57BL/6 mouse model assessed as pathological change in lung at 10 mg/kg, po administered every other day for 8 weeks by H and E staining based analysis; format: organism-based; settings: in vivo, 1344 h
Mus musculus [21] = assay: Anti-osteoporosis effect in OVX-induced osteoporosis C57BL/6 mouse model assessed as reduction in bone mass loss in distal femur at 10 mg/kg, po administered every other day for 8 weeks by micro-CT analysis; format: functional, organism-based
Mus musculus [22] = assay: Anti-osteoporosis effect in OVX-induced osteoporosis C57BL/6 mouse model assessed as increase in BV/TV value at 10 mg/kg, po administered every other day for 8 weeks by micro-CT analysis; format: functional, organism-based
Mus musculus [23] = assay: Anti-osteoporosis effect in OVX-induced osteoporosis C57BL/6 mouse model assessed as increase in Tb.Th value at 10 mg/kg, po administered every other day for 8 weeks by micro-CT analysis; format: functional, organism-based
Mus musculus [24] = assay: Anti-osteoporosis effect in OVX-induced osteoporosis C57BL/6 mouse model assessed as decrease in Tb.Sp value at 10 mg/kg, po administered every other day for 8 weeks by micro-CT analysis; format: functional, organism-based
Mus musculus [25] = assay: Anti-osteoporosis effect in OVX-induced osteoporosis C57BL/6 mouse model assessed as increase in number of osteoclasts to bone surface area ratio at 10 mg/kg, po administered every other day for 8 weeks by TRAP staining based analysis; format: functional, organism-based
[26] = molecular target: T1, Tumor necrosis factor ligand superfamily member 11 (Homo sapiens) (UniProt O14788); assay: Binding affinity to CM5 sensor chip-immobilized RANKL (unknown origin) by SPR analysis; settings: dose 0.98-31.25 µM
T1 sequence (whole entry): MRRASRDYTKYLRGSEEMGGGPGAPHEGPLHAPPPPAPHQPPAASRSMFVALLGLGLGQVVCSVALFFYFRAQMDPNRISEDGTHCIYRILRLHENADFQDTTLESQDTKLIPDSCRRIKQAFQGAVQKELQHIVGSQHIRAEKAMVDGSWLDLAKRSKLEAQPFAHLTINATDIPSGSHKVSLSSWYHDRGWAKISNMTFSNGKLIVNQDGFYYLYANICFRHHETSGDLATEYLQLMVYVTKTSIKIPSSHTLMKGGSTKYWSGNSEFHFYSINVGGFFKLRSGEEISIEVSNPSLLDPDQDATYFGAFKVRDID

[27] = Inhibition of C57BL/6 mouse T cell proliferation upto 2 uM incubated for 5 days by APC-Annexin V staining based analysis; format: toxicity; settings: 120 h, time 5 day

**Q.** For O=C1C([Se]c2ccccc2)=C([Se]c2ccccc2)C(=O)N1Cc1ccccc1, which inhibition (BMDM [1]) is on record?
**A.** The inhibition was “Active”.

**Q.** What about the inhibition (RAW264.7) of the same molecule?
**A.** The inhibition was “Active”.

**Q.** What about the IC50 (BMDM [2]; 144 h) of the same molecule?
**A.** Its IC50 is 360 nM.

**Q.** And the inhibition (BMDM [2]; dose <= 2.0 µM, time 6.0 day)?
**A.** The inhibition was “Dose-dependent-effect”.

**Q.** And the inhibition (BMDM [3])?
**A.** Its inhibition is “Dose-dependent-effect”.

**Q.** And the inhibition (BMDM [4])?
**A.** Its inhibition is “Dose-dependent-effect”.

**Q.** And the inhibition (BMDM [5])?
**A.** Its inhibition is “Dose-dependent-effect”.

**Q.** What about the inhibition (BMDM [6]) of the same molecule?
**A.** The inhibition was “Dose-dependent-effect”.

**Q.** And the inhibition (BMDM [7])?
**A.** Its inhibition is “Dose-dependent-effect”.

**Q.** And the inhibition (BMDM [8])?
**A.** The inhibition was “Active”.

**Q.** And the Activity (BMDM [9])?
**A.** Its Activity is “No effect”.

**Q.** What about the inhibition (BMDM [10]) of the same molecule?
**A.** Its inhibition is “Active”.

**Q.** And the Activity (BMDM [11])?
**A.** The Activity was “No effect”.

**Q.** What about the inhibition (BMDM [12]) of the same molecule?
**A.** The inhibition was “Active”.

**Q.** What about the Activity (MC3T3-E1 [13]) of the same molecule?
**A.** The Activity was “Non-toxic”.

**Q.** What about the Activity (MC3T3-E1 [14]) of the same molecule?
**A.** The Activity was “No effect”.

**Q.** What about the Activity (MC3T3-E1 [15]) of the same molecule?
**A.** Its Activity is “No effect”.

**Q.** What about the Activity (MC3T3-E1 [16]) of the same molecule?
**A.** The Activity was “No effect”.

**Q.** What about the Activity [17] of the same molecule?
**A.** Its Activity is “Non-toxic”.

**Q.** And the Activity [18]?
**A.** Its Activity is “Non-toxic”.

**Q.** And the Activity [19]?
**A.** Its Activity is “Non-toxic”.

**Q.** What about the Activity [20] of the same molecule?
**A.** The Activity was “Non-toxic”.

**Q.** What about the Activity (Mus musculus [21]) of the same molecule?
**A.** The Activity was “Active; Displayed Similar Effect With That Exhibited By Alendronate”.

**Q.** And the Activity (Mus musculus [22])?
**A.** The Activity was “Active; Displayed Similar Effect With That Exhibited By Alendronate”.

**Q.** And the Activity (Mus musculus [23])?
**A.** The Activity was “Active; Displayed Similar Effect With That Exhibited By Alendronate”.

**Q.** And the Activity (Mus musculus [24])?
**A.** The Activity was “Active; Displayed Similar Effect With That Exhibited By Alendronate”.

**Q.** And the Activity (Mus musculus [25])?
**A.** The Activity was “Active; Displayed Similar Effect With That Exhibited By Alendronate”.

**Q.** What about the Activity [26] of the same molecule?
**A.** Its Activity is “Dose-dependent-effect”.

**Q.** And the Activity [27]?
**A.** Its Activity is “Non-toxic”.
